Results on 1 compound are retold here after patent US11013709B2, “Highly purified eicosapentaenoic acid, as free fatty acid, reduces fecal calprotectin levels and prevents clinical relapse in ulcerative colitis patients” (S.L.A. PHARMA AG, priority 2017, dated 2021).

Each structure is given as a SMILES string.

One data set has as its system fecal calprotectin (FC). Nature of the data set: Double-blind, randomized, placebo-controlled study in UC patients: fecal calprotectin level (ELISA, Calprest). The following applies: over a six month period of administering highly purified EPA-FFA. It counts as in vivo, human. As to the method:
The present invention provides for a double-blind, randomized, placebo-controlled study with UC patients with fecal calprotectin level ≥150 μg/g and in stable therapy for at least the 3 previous months. Each subject, receives either 2 grams daily of EPA-FFA (2 dosages of 500 mg sustained-release capsules, twice a day) or placebo (2 dosages of 500 mg sustained-release capsules of capric and caprylic acids, twice daily) for a 6 month period. At baseline, the patients undergo a total colonoscopy. Fecal calprotectin levels, clinical and laboratory assessments are performed at baseline, 3 and 6 months or at the time of clinical relapse, which has been defined as the occurrence of symptoms accompanied by an increase in the partial Mayo score ≥2 and/or requiring a change in therapy. […]
The primary endpoint is the proportion of patients achieving a 100-point reduction (100 μg/g or greater) from baseline in FC level at 6 months. […] A combined endpoint consisting of the number of patients achieving the primary and secondary endpoints is also calculated. […]
A fecal sample from the first bowel movement in the morning is stored in a refrigerator at 2-8° C. for a maximum of 24 h before performing the analysis. Quantification of FC levels is carried out using a quantitative, enzyme-linked immunosorbent assay (Calprest; Eurospital, Trieste, Italy), according to the manufacturers' instructions. […]

Data set [1] is described as follows: Safety and tolerability in placebo-controlled trial of UC patients. It counts as in vivo, human. The following applies: 60 patients with UC treated for 6 months. Here is the method: The present invention provides for a double-blind, randomized, placebo-controlled study with UC patients with fecal calprotectin level ≥150 μg/g and in stable therapy for at least the 3 previous months. Each subject, receives either 2 grams daily of EPA-FFA (2 dosages of 500 mg sustained-release capsules, twice a day) or placebo (2 dosages of 500 mg sustained-release capsules of capric and caprylic acids, twice daily) for a 6 month period. At baseline, the patients undergo a total colonoscopy. Fecal calprotectin levels, clinical and laboratory assessments are performed at baseline, 3 and 6 months or at the time of clinical relapse, which has been defined as the occurrence of symptoms accompanied by an increase in the partial Mayo score ≥2 and/or requiring a change in therapy.
Patients who satisfied the inclusion criteria undergo blood tests, including C-reactive protein (CRP) (normal upper limit 5 mg/L) and a total colonoscopy with multiple biopsies at baseline. They are then randomized 1:1 to receive either 2 g daily of EPA-FFA (2×500 mg gastro-resistant sustained-release capsules, twice-daily) or 2 g of placebo (2×500 mg gastro-resistant sustained-release capsules of capric and caprylic acids that are triglycerides of the fractionated plant fatty acids, twice-daily) for a 6-month period. The entire study team are blinded to the treatment assignment.

The conditions of data set [2]: cited from earlier work.

In the case of `CC/C=C\C/C=C\C/C=C\C/C=C\C/C=C\CCCC(=O)O` [EPA-FFA, eicosapentaenoic acid], the “reduction of FC” value with fecal calprotectin (FC) is listed as “at least 100 μg/g”. For the same compound, the serious adverse events result in data set [1] is “no serious adverse events”. Besides, the “incorporation of EPA into plasma phospholipids and red blood cell membranes” value in data set [2] (2 g daily for 8 weeks, patients with IBD and healthy volunteers) is “consistently incorporated into plasma phospholipids and red blood cell membranes”. In data set [2], the metabolic conversion entry is recorded as “quickly converted into docosahexaenoic acid via docosapentaenoic acid”.
